Data published in patent US8450305B2, “Macrocyclic compounds useful as inhibitors of kinases and HSP90” (Universite de Strasbourg, priority 2006, dated 2013).

Each compound was assayed against T1, FAK (Homo sapiens, UniProt Q05397) (assay: Radiometric protein kinase assay, FAK). Details: 1 μM ATP; read-out: Inhibitory activity (IC50:μM) FAK.
T1 construct: host or cells: Sf9 insect cells (baculovirus)
Assay type: biochemical
Source text: (§1) All protein kinases were expressed in Sf9 insect cells as human recombinant GST-fusion proteins or His-tagged proteins by means of the baculovirus expression system. Kinases were purified by affinity chromatography using either GSH-agarose (Sigma) or Ni-NTH-agarose (Qiagen). The purity of each kinase was checked by SDS-PAGE/silver staining and the identity of each kinase was verified by western blot analysis with kinase specific antibodies or by mass spectroscopy.
(§2) A radiometric protein kinase assay (^33PanQinase® Activity Assay) was used for measuring the kinase activity of the 24 protein kinases. All kinase assays were performed in 96-well FlashPlates™ from Perkin Elmer (Boston, Mass., USA) in a 50 μl reaction volume. The reaction cocktail was pipetted in 4 steps in the following order: • 20 μl of assay buffer • 5 μl of ATP solution (in H2O) • 5 μl of test compound (in 10% DMSO) • 10 μl of substrate/10 […] of enzyme solution (premixed)
(§3) The assay for all enzymes contained 60 mM HEPES-NaOH, pH 7.5, 3 mM MgCl2, 3 mM MnCl2, 3 μM Na-orthovanadate, 1.2 mM DTT, 50 μg/ml PEG20000, 1 μM [γ-^33P]-ATP (approx. 5×10^05 cpm per well).
(§4) For the 24 kinase assays, the following amounts of enzyme and substrate were used per well:
(§5) The reaction cocktails were incubated at 30° C. for 80 minutes. The reaction was stopped with 50 μl of 2% (v/v) H3PO4, plates were aspirated and washed two times with 200 μl of 0.9% (w/v) NaCl or 200 μl H2O. Incorporation of ^33Pi was determined with a microplate scintillation counter (Microbeta Trilux, Wallac).
(§6) The median value of the counts in column 1 (n=8) of each assay plate was defined as “low control”. This value reflects unspecific binding of radioactivity to the plate in the absence of a protein kinase but in the presence of the substrate. The median value of the counts in column 7 of each assay plate (n=8) was taken as the “high control”, i.e. full activity in the absence of any inhibitor. The difference between high and low control was taken as 100% activity.
(§7) As part of the data evaluation the low control value from a particular plate was subtracted from the high control value as well as from all 80 “compound values” of the corresponding plate. The residual activity (in %) for each well of a particular plate was calculated by using the following formula: Res. Activity (%)=100×[(cpm of compound−low control)/(high control−low control)]
(§8) The residual activities for each concentration and the compound IC50 values were calculated using Quattro Workflow V2.1.0.0 (Quattro Research GmbH, Munich, Germany; www.quattro-research.com). The model used was “Sigmoidal response (variable slope)” with parameters “top” fixed at 100% and “bottom” at 0%.

T1 sequence (Q05397 whole entry): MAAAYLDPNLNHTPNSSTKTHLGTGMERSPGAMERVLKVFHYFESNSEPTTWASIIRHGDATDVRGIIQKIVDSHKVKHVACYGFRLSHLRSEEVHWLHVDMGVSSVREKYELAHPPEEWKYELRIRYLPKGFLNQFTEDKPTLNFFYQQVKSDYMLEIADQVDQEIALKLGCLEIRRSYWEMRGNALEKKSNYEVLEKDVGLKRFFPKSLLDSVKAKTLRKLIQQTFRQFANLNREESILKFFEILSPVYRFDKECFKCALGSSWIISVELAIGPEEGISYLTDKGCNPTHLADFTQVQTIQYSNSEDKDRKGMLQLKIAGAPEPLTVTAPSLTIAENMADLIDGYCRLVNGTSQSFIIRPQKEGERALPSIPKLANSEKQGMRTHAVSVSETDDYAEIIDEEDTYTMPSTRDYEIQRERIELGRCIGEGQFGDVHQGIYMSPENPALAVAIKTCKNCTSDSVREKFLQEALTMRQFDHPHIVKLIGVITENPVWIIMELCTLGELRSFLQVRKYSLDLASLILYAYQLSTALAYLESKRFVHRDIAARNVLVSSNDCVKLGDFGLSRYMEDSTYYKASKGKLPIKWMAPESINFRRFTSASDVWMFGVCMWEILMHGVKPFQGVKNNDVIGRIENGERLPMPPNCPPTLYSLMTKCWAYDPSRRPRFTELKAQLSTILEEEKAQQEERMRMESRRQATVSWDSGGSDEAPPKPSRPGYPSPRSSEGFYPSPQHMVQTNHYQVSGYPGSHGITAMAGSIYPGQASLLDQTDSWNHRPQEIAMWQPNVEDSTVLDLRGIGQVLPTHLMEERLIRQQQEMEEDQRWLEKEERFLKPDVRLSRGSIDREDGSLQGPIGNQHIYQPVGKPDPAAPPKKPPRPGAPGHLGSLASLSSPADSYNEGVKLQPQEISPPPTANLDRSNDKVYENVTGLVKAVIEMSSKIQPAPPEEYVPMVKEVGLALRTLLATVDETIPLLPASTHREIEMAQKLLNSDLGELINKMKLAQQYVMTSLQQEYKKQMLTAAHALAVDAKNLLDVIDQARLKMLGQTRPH

Row | SMILES | IC50 [µM]
1 | COC1CC/C=C/C[C@H](c2ccccc2)OC(=O)c2c(O)cc(O)c(Cl)c2CC(=O)C1 (some centres unmarked) [A-2] | 14
2 | O=C1Cc2c(Cl)c(O)cc(O)c2C(=O)O[C@H](c2ccccc2)C/C=C/CCC(Cl)C1 (some centres unmarked) [A-3] | 9
3 | CC(C)[C@@H]1CC2OC2CC/C=C/C(=O)Cc2c(Cl)c(O)cc(O)c2C(=O)O1 (some centres unmarked) [A-4] | 37
4 | O=C1/C=C/CCC2OC2C[C@H](c2ccccc2)OC(=O)c2c(O)cc(O)c(Cl)c2C1 (some centres unmarked) [A-5] | 38
5 | O=C1/C=C/CCC2OC2C[C@@H](Cc2ccccc2)OC(=O)c2c(O)cc(O)cc2C1 (some centres unmarked) [A-6] | 34

What follows are compounds tested against T2, EPHB4 (Homo sapiens, UniProt P54760) (assay: Radiometric protein kinase assay, EPHB4). Details: 1 μM ATP; read-out: Inhibitory activity (IC50:μM) EPHB4.
T2 construct: host or cells: Sf9 insect cells (baculovirus)
T2 sequence (P54760 16-987): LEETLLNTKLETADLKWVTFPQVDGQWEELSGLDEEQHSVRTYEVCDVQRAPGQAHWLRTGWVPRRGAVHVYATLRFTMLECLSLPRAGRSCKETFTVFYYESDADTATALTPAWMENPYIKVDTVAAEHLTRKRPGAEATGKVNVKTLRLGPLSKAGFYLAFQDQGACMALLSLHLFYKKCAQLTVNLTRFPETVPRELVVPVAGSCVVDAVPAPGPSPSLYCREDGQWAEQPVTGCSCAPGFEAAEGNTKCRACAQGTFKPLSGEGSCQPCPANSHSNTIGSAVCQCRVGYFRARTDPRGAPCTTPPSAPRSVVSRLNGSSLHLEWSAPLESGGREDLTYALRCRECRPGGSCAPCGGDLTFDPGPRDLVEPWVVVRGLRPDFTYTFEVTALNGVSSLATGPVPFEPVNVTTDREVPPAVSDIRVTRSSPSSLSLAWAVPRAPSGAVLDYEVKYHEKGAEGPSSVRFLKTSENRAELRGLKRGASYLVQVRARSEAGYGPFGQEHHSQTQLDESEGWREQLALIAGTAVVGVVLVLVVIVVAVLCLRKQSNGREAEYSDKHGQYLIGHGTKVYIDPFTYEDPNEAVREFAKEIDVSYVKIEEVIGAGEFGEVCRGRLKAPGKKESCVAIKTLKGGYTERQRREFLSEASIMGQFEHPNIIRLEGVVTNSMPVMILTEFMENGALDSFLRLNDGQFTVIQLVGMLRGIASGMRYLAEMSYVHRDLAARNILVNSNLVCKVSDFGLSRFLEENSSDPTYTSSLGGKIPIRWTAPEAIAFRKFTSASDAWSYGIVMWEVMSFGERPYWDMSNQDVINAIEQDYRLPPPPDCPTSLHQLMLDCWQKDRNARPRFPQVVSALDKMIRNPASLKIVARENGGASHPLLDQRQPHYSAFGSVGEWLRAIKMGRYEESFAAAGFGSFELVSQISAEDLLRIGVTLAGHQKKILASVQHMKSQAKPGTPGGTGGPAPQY
Assay type: biochemical
Source text: as §1, §2, §3, §4, §5, §6, §7, §8

Row | SMILES | IC50 [µM]
6 | COC1CC/C=C/C[C@H](c2ccccc2)OC(=O)c2c(O)cc(O)c(Cl)c2CC(=O)C1 (some centres unmarked) [A-2] | 16
7 | O=C1Cc2c(Cl)c(O)cc(O)c2C(=O)O[C@H](c2ccccc2)C/C=C/CCC(Cl)C1 (some centres unmarked) [A-3] | 40
8 | O=C1/C=C/CCC2OC2C[C@H](c2ccccc2)OC(=O)c2c(O)cc(O)c(Cl)c2C1 (some centres unmarked) [A-5] | 49
9 | O=C1/C=C/CCC2OC2C[C@@H](Cc2ccccc2)OC(=O)c2c(O)cc(O)cc2C1 (some centres unmarked) [A-6] | 40

These compounds were tested against T3, VEGF-R2 (Homo sapiens, UniProt P35968) (assay: Radiometric protein kinase assay, VEGF-R2). Details: 1 μM ATP; read-out: Inhibitory activity (IC50:μM) VEGF-R2.
T3 construct: host or cells: Sf9 insect cells (baculovirus)
T3 sequence (P35968 20-1356): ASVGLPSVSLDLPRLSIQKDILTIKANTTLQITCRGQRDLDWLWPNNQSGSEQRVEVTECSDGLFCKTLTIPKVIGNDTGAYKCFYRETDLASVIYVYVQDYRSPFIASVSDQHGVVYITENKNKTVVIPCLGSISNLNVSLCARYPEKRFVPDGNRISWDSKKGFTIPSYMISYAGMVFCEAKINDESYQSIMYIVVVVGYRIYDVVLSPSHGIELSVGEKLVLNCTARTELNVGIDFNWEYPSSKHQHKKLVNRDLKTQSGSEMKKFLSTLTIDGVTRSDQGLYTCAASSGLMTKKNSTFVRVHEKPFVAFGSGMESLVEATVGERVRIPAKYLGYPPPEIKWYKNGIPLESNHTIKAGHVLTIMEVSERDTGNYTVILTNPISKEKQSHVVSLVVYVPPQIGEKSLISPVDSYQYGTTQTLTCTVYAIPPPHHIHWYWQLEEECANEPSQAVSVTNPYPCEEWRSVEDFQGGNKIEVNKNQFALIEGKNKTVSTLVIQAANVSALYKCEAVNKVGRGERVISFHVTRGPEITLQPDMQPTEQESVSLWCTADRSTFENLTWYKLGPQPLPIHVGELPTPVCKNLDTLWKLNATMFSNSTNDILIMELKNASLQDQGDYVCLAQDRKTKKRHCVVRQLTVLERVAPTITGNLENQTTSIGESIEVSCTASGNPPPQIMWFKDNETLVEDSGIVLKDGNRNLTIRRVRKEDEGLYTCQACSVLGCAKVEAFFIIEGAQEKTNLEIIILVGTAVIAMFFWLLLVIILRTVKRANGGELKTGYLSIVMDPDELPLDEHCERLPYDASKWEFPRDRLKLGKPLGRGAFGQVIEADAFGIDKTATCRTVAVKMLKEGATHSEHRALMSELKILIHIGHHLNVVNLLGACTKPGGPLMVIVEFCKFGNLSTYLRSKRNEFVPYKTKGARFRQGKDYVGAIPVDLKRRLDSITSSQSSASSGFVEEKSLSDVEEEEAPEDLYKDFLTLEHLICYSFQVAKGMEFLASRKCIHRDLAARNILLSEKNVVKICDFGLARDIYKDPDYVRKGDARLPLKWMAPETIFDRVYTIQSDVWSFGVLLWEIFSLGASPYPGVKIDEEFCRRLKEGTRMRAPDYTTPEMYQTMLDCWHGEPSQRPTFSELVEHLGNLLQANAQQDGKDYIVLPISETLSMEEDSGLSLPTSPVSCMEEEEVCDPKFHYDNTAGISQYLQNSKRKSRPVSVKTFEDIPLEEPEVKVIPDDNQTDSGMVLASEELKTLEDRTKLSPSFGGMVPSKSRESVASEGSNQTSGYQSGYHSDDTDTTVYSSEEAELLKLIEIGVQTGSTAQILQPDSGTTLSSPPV
Assay type: biochemical
Source text: as §1, §2, §3, §4, §5, §6, §7, §8

Row | SMILES | IC50 [µM]
10 | COC1CC/C=C/C[C@H](c2ccccc2)OC(=O)c2c(O)cc(O)c(Cl)c2CC(=O)C1 (some centres unmarked) [A-2] | 19
11 | O=C1Cc2c(Cl)c(O)cc(O)c2C(=O)O[C@H](c2ccccc2)C/C=C/CCC(Cl)C1 (some centres unmarked) [A-3] | 20
12 | CC(C)[C@@H]1CC2OC2CC/C=C/C(=O)Cc2c(Cl)c(O)cc(O)c2C(=O)O1 (some centres unmarked) [A-4] | 30
13 | O=C1/C=C/CCC2OC2C[C@H](c2ccccc2)OC(=O)c2c(O)cc(O)c(Cl)c2C1 (some centres unmarked) [A-5] | 19
14 | O=C1/C=C/CCC2OC2C[C@@H](Cc2ccccc2)OC(=O)c2c(O)cc(O)cc2C1 (some centres unmarked) [A-6] | 25

What follows are compounds tested against T4, Aurora-A (Homo sapiens, UniProt O14965) (assay: Radiometric protein kinase assay, Aurora-A). Details: 1 μM ATP; read-out: Inhibitory activity (IC50:μM) Aurora-A.
T4 construct: host or cells: Sf9 insect cells (baculovirus)
T4 sequence (O14965 1-403): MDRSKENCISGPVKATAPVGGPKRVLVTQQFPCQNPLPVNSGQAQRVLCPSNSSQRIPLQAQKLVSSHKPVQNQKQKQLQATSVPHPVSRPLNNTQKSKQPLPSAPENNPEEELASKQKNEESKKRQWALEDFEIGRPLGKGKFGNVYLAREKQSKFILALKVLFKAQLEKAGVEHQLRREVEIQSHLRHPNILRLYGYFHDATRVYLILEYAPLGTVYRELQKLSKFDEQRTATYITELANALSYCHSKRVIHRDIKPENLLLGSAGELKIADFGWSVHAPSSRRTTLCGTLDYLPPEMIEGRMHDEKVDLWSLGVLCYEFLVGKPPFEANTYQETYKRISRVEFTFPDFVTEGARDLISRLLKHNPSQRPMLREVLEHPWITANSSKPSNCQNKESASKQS
Assay type: biochemical
Source text: as §1, §2, §3, §4, §5, §6, §7, §8

Row | SMILES | IC50 [µM]
15 | COC1CC/C=C/C[C@H](c2ccccc2)OC(=O)c2c(O)cc(O)c(Cl)c2CC(=O)C1 (some centres unmarked) [A-2] | 14
16 | CC(C)[C@@H]1CC2OC2CC/C=C/C(=O)Cc2c(Cl)c(O)cc(O)c2C(=O)O1 (some centres unmarked) [A-4] | 30
17 | O=C1/C=C/CCC2OC2C[C@H](c2ccccc2)OC(=O)c2c(O)cc(O)c(Cl)c2C1 (some centres unmarked) [A-5] | 47

What follows are compounds tested against T5, CDK4/CycD1 (Homo sapiens, UniProt P11802) (assay: Radiometric protein kinase assay, CDK4/CycD1). Details: 1 μM ATP; read-out: Inhibitory activity (IC50:μM) CDK4/CycD1.
T5 construct: host or cells: Sf9 insect cells (baculovirus)
T5 sequence (P11802 whole entry): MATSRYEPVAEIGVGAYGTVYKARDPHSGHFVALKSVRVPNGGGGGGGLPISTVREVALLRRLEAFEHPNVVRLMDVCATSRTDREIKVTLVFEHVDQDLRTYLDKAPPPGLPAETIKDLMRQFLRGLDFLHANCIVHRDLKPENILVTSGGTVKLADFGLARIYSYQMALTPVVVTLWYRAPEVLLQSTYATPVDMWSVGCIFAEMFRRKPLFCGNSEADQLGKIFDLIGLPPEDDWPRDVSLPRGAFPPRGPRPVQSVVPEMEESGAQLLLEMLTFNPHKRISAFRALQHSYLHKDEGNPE
T5 sequence (P24385 whole entry partner): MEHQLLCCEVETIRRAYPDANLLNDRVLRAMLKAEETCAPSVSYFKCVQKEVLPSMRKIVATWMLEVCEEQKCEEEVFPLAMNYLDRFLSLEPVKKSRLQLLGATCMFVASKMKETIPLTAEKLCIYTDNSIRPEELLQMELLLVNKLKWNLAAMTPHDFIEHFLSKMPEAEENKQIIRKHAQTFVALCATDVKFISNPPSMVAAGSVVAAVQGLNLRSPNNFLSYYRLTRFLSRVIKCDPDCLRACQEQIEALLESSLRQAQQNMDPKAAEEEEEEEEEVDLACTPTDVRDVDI
Assay type: biochemical
Source text: as §1, §2, §3, §4, §5, §6, §7, §8

Row | SMILES | IC50 [µM]
18 | COC1CC/C=C/C[C@H](c2ccccc2)OC(=O)c2c(O)cc(O)c(Cl)c2CC(=O)C1 (some centres unmarked) [A-2] | 50
19 | O=C1Cc2c(Cl)c(O)cc(O)c2C(=O)O[C@H](c2ccccc2)C/C=C/CCC(Cl)C1 (some centres unmarked) [A-3] | 30
20 | CC(C)[C@@H]1CC2OC2CC/C=C/C(=O)Cc2c(Cl)c(O)cc(O)c2C(=O)O1 (some centres unmarked) [A-4] | 48
21 | O=C1/C=C/CCC2OC2C[C@H](c2ccccc2)OC(=O)c2c(O)cc(O)c(Cl)c2C1 (some centres unmarked) [A-5] | 45
22 | O=C1/C=C/CCC2OC2C[C@@H](Cc2ccccc2)OC(=O)c2c(O)cc(O)cc2C1 (some centres unmarked) [A-6] | 37

Each compound was assayed against T6, Aurora-B (Homo sapiens, UniProt Q96GD4) (assay: Radiometric protein kinase assay, Aurora-B). Details: 1 μM ATP; read-out: Inhibitory activity (IC50:μM) Aurora-B.
T6 construct: host or cells: Sf9 insect cells (baculovirus)
T6 sequence (Q96GD4 whole entry): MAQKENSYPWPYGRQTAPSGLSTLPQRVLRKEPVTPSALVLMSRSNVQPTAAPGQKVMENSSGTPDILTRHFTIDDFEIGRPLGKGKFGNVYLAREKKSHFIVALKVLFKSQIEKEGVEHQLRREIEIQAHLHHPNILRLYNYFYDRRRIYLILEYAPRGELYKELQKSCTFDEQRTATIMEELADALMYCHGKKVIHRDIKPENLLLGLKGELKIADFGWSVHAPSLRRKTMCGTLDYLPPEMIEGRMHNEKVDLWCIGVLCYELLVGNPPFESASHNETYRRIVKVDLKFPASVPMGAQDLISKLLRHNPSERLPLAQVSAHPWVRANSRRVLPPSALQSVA
Assay type: biochemical
Source text: as §1, §2, §3, §4, §5, §6, §7, §8

Row | SMILES | IC50 [µM]
23 | COC1CC/C=C/C[C@H](c2ccccc2)OC(=O)c2c(O)cc(O)c(Cl)c2CC(=O)C1 (some centres unmarked) [A-2] | 16
24 | O=C1Cc2c(Cl)c(O)cc(O)c2C(=O)O[C@H](c2ccccc2)C/C=C/CCC(Cl)C1 (some centres unmarked) [A-3] | 14
25 | CC(C)[C@@H]1CC2OC2CC/C=C/C(=O)Cc2c(Cl)c(O)cc(O)c2C(=O)O1 (some centres unmarked) [A-4] | 36
26 | O=C1/C=C/CCC2OC2C[C@@H](Cc2ccccc2)OC(=O)c2c(O)cc(O)cc2C1 (some centres unmarked) [A-6] | 16
